Measurements: ChEMBL document CHEMBL4130472, “Synthesis of naphthazarin derivatives and identification of novel thioredoxin reductase inhibitor as potential anticancer agent” (Eur J Med Chem, 2017)
Changes are numbered by the printed parent chain. Activity calls are given as the source filed them. No cut-off for these calls is given here.

Assays:
[1] = tested on: HL-60; assay: Cytotoxicity in human HL60 cells assessed as cell viability at 20 uM incubated for 48 hrs by MTT assay; assay type: functional; conditions: HL-60, 48 h, read-out: Activity
[2] = target: T1, Thioredoxin reductase 1, cytoplasmic (Rattus norvegicus) (UniProt O89049); assay: Irreversible inhibition of NADPH-reduced rat TrxR1 assessed as suppression of DTNB reduction incubated for 1 hr followed by compound removal from incubation mixture by column desalting
T1 sequence (whole entry): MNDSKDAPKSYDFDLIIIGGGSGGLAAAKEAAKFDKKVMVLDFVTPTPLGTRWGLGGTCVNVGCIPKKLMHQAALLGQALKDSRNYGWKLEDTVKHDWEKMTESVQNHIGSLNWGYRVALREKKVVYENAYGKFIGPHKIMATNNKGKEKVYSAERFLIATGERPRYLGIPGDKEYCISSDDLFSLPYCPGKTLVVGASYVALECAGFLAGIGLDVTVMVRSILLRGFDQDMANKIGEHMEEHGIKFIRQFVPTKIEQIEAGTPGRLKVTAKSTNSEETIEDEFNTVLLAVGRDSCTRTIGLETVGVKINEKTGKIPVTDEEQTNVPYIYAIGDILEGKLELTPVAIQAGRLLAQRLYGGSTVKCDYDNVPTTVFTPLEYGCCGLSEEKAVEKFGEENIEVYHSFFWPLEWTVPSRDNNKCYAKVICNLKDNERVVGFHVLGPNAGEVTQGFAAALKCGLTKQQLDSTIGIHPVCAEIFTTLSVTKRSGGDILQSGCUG

[3] = tested on: HL-60; assay: Induction of apoptosis in human HL60 cells assessed as increase in caspase-3 activity at 1 to 3 uM incubated for 24 hrs using Ac-DEVD-pNA substrate by colorimetric assay; assay type: functional, cell-based
[4] = tested on: HL-60; assay: Induction of apoptosis in human HL60 cells 3 uM incubated for 24 hrs by Annexin V/propidium iodide staining based flow cytometry; assay type: functional
[5] = tested on: HeLa; assay: Cytotoxicity in human HeLa cells transfected with shTrxR1 assessed as reduction in cell viability at 1 to 5 uM incubated for 48 hrs by MTT assay; assay type: functional, cell-based
[6] = tested on: T2, Thioredoxin reductase 1, cytoplasmic (Rattus norvegicus), O89049 [U498C]; assay: Inhibition of NADPH-reduced rat TrxR1 U498C mutant assessed as suppression of DTNB reduction at 1 to 5 uM incubated for 1 hr
T2 sequence (whole entry): T1 sequence (whole entry) with U498C

[7] = tested on: HL-60; assay: Induction of apoptosis in human HL60 cells 5 uM incubated for 24 hrs by Annexin V/propidium iodide staining based flow cytometry; assay type: functional
[8] = tested on: HeLa; assay: Cytotoxicity in human HeLa cells assessed as reduction in cell viability at 1 to 5 uM incubated for 48 hrs by MTT assay; assay type: functional, cell-based
[9] = tested on: HL-60; assay: Cytotoxicity in human HL60 cells assessed as reduction in cell viability incubated for 48 hrs by MTT assay; assay type: functional, cell-based; conditions: HL-60, 48 h
[10] = tested on: HL-60; assay: Cytotoxicity in human HL60 cells assessed as reduction in cell viability incubated for 48 hrs by trypan blue dye exclusion assay; assay type: functional, cell-based; conditions: HL-60, 48 h
[11] = target: T3, Thioredoxin reductase 1, cytoplasmic (Homo sapiens, UniProt Q16881); assay: Inhibition of TrxR1 in human HL60 cells incubated for 24 hrs by endpoint insulin reduction assay; assay type: cell-based
T3 sequence (Q16881 whole entry): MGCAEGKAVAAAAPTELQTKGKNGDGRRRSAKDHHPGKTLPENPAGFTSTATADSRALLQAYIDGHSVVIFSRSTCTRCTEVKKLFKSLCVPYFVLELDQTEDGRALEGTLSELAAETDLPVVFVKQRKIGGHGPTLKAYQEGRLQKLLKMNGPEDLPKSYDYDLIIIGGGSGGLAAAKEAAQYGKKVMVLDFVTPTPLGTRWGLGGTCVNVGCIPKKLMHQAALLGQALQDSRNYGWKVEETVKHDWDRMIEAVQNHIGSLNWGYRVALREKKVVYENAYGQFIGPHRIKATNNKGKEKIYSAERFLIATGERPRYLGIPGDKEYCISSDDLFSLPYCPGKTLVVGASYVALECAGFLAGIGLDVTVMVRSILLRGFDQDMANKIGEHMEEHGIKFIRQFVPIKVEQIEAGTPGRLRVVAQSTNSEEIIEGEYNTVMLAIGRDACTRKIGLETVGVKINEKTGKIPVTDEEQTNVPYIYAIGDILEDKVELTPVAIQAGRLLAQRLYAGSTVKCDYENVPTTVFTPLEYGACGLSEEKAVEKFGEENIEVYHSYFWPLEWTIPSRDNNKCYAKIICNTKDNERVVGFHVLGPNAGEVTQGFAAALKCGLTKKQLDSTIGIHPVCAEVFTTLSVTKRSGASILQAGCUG

[12] = tested on: HL-60; assay: Induction of apoptosis in human HL60 cells assessed as increase in caspase-3 activity at 5 uM incubated for 24 hrs using Ac-DEVD-pNA substrate by colorimetric assay; assay type: functional, cell-based
[13] = tested on: HL-60; assay: Cytotoxicity in human HL60 cells assessed as cell viability at 1 to 5 uM incubated for 48 hrs after 24 hrs pre-treatment with 50 uM BSO before compound addition by MTT assay; assay type: functional, cell-based
[14] = tested on: HL-60; assay: Cytotoxicity in human HL60 cells assessed as cell viability at 1 to 5 uM incubated for 24 hrs after pre-treatment with […] before compound addition by MTT assay; assay type: functional, cell-based
[15] = target: T4, Thioredoxin reductase 1, cytoplasmic (Homo sapiens) (UniProt Q16881); assay: Inhibition of TrxR1 in human HL60 cells incubated for 12 hrs by TRFS-green dye based fluorescence assay; assay type: cell-based
T4 sequence (whole entry): T3 sequence (Q16881 whole entry)

[16] = tested on: HL-60; assay: Induction of necrosis in human HL60 cells 5 uM incubated for 24 hrs by Annexin V/propidium iodide staining based flow cytometry; assay type: functional, cell-based
[17] = tested on: HEK-293T; assay: Cytotoxicity in human HEK293T cells assessed as reduction in cell viability at 1 to 5 uM incubated for 48 hrs by MTT assay; assay type: cell-based
[18] = tested on: HL-60; assay: Induction of ROS production in human HL60 cells at 1 to 5 uM incubated for 1 hr by DCFH-DA staining based fluorescence assay; assay type: functional, cell-based
[19] = tested on: HL-60; assay: Induction of apoptosis in human HL60 cells 1 uM incubated for 24 hrs by Annexin V/propidium iodide staining based flow cytometry; assay type: functional
[20] = tested on: HEK-293T; assay: Cytotoxicity in HEK293T cells transfected with pIRESneo construct assessed as reduction in cell viability at 1 to 5 uM incubated for 48 hrs by MTT assay; assay type: functional, cell-based; conditions: Homo sapiens
[21] = tested on: HL-60; assay: Induction of apoptosis in human HL60 cells 0.5 uM incubated for 24 hrs by Annexin V/propidium iodide staining based flow cytometry; assay type: functional
[22] = target: T5, Glutathione reductase (Rattus norvegicus) (UniProt P70619); assay: Inhibition of NADPH-reduced rat glutathione reductase at 1 to 5 uM incubated for 1 hr in presence of NADPH and GSSG
T5 sequence (whole entry): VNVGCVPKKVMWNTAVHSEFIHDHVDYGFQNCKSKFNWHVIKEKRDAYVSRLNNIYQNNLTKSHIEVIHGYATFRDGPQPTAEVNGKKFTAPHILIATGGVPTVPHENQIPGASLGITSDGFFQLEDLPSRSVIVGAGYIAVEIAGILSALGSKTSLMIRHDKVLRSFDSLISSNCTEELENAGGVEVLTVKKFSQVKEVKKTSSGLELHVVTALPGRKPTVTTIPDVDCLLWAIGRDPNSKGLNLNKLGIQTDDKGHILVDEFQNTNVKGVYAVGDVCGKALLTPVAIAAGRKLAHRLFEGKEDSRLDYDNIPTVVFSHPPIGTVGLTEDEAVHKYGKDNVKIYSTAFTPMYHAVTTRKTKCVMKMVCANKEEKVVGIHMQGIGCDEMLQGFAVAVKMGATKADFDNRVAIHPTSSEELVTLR

[23] = tested on: HL-60; assay: Potentiation of H2O2-induced cytotoxicity in human HL60 cells assessed as induction of cell death at 3 uM incubated for 24 hrs by MTT assay; assay type: functional, cell-based
[24] = tested on: HL-60; assay: Effect on TrxR1 protein expression in human HL60 cells at 1 to 5 uM incubated for 24 hrs by Western blot; assay type: ADME, cell-based; conditions: hl-60, 24 h
[25] = target: T6, Thioredoxin reductase 1, cytoplasmic (Rattus norvegicus, UniProt O89049); assay: (§1) Inhibition of NADPH-reduced rat TrxR1 assessed as suppression of DTNB reduction incubated for 1 hr
T6 sequence (O89049 whole entry): T1 sequence (whole entry)

[26] = target: T1, Thioredoxin reductase 1, cytoplasmic (Rattus norvegicus); assay: as §1
[27] = tested on: A549; assay: Cytotoxicity in human A549 cells assessed as reduction in cell viability at 1 to 5 uM incubated for 48 hrs by MTT assay; assay type: functional, cell-based
[28] = tested on: HeLa; assay: Cytotoxicity in human HeLa cells transfected with non targetting vector assessed as reduction in cell viability at 1 to 5 uM incubated for 48 hrs by MTT assay; assay type: functional, cell-based
[29] = tested on: HL-60; assay: Induction of apoptosis in human HL60 cells assessed as increase in condensed and fluorescent nuclei at 1 to 5 uM incubated for 24 hrs by Hoechst 33342 staining based phase contrast and fluorescence microscopy; assay type: functional, cell-based
[30] = tested on: HL-60; assay: Cytotoxicity in human HL60 cells assessed as cell viability at 1 to 5 uM incubated for 24 hrs by MTT assay; assay type: functional, cell-based
[31] = tested on: HL-60; assay: Induction of apoptosis in human HL60 cells 0.5 to 5 uM incubated for 24 hrs in presence of NAC by Annexin V/propidium iodide staining based flow cytometry; assay type: functional, cell-based
[32] = tested on: HL-60; assay: Reduction in intracellular thiols in human HL60 cells at 1 to 5 uM incubated for 24 hrs by DTNB titration method; assay type: functional, cell-based
[33] = tested on: HL-60; assay: Cytotoxicity in human HL60 cells assessed as reduction in cell viability incubated for 72 hrs by MTT assay; assay type: functional, cell-based; conditions: HL-60, 72 h
[34] = tested on: HEK-293T; assay: Cytotoxicity in HEK293T cells overexpressing TrxR1 (unknown origin) cells assessed as reduction in cell viability at 1 to 5 uM incubated for 48 hrs by MTT assay; assay type: functional, cell-based; conditions: Homo sapiens
[35] = tested on: L02; assay: Cytotoxicity in human L02 cells assessed as reduction in cell viability at 1 to 5 uM incubated for 48 hrs by MTT assay; assay type: cell-based; conditions: l02, 48 h
[36] = tested on: HL-60; assay: Induction of ROS production in human HL60 cells at 1 to 5 uM incubated for 1 hr by DHE staining based fluorescence assay; assay type: functional, cell-based
[37] = tested on: HL-60; assay: Potentiation of H2O2-induced cytotoxicity in human HL60 cells assessed as induction of cell death at 1 uM incubated for 24 hrs by MTT assay (reference value: 4%); assay type: functional
[38] = tested on: HL-60; assay: Cytotoxicity in human HL60 cells assessed as induction of cell death at 1 uM incubated for 24 hrs by MTT assay; assay type: functional
[39] = tested on: HepG2; assay: Cytotoxicity in human HepG2 cells assessed as reduction in cell viability at 1 to 5 uM incubated for 48 hrs by MTT assay; assay type: functional, cell-based
[40] = tested on: HL-60; assay: Reduction in GSH/GSSG ratio in human HL60 cells at 1 to 5 uM incubated for 24 hrs by enzymatic recycling method; assay type: functional, cell-based

O=C1C=C(N2CCCCC2)C(=O)c2c(O)ccc(O)c21
viability at 20 µM [1]: 54.9%

CC1=CC(=O)c2c(O)ccc(O)c2C1=O
inhibition [2]: Active | Activity [3]: Active | Activity [4]: 42% | Activity [5]: Active | inhibition [6]: inactive | Activity [7]: 56% | Activity [8]: Active | IC50 [9]: 720 nM | IC50 [10]: 860 nM | IC50 [11]: 2400 nM | Activity [12]: inactive | Activity [13]: Active | Activity [14]: inactive | inhibition [15]: Dose-dependent effect | Activity [16]: Active | Activity [17]: Non-Toxic | viability at 20 µM [1]: 0% | Activity [18]: Active | Activity [19]: 23% | Activity [20]: Active | Activity [21]: 10% | inhibition [22]: inactive | Activity [23]: Active | Activity [24]: Non-Toxic | IC50 [25]: 700 nM | inhibition [26]: Dose-dependent effect | Activity [27]: Active | Activity [28]: Active | Activity [29]: Active | Activity [30]: Active | Activity [31]: inactive | Activity [32]: Active | IC50 [33]: 640 nM | Activity [34]: inactive | Activity [35]: Non-Toxic | Activity [36]: Dose-dependent effect | Activity [37]: >43% | Activity [38]: 27% | Activity [39]: Active | Activity [40]: Dose-dependent effect

CCCCCCCCNC1=CC(=O)c2c(O)ccc(O)c2C1=O
viability at 20 µM [1]: 61.1%

CC(C)CCNC1=CC(=O)c2c(O)ccc(O)c2C1=O
viability at 20 µM [1]: 54.3%

O=C1C=C(NCCO)C(=O)c2c(O)ccc(O)c21
viability at 20 µM [1]: 50.3%

O=C1C=CC(=O)c2c(O)ccc(O)c21 [NAPHTHAZALIN]
IC50 [9]: 930 nM | viability at 20 µM [1]: 0% | IC50 [33]: 800 nM

CCNC1=CC(=O)c2c(O)ccc(O)c2C1=O
viability at 20 µM [1]: 56.4%

O=C1C=C(N2CCCC2)C(=O)c2c(O)ccc(O)c21
viability at 20 µM [1]: 97.2%
